“And” between values parts separate entries of the source, which are not always exact repeats. Identical values can stand only once.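 Growth conditions: 96-well plates. Treatment: test compound, 48 hours, 5 concentrations. Analysis: linear interpolation between bracketing concentrations; unreached endpoints set to highest concentration. GI50: concentration for 50% inhibition of growth. Definition used: TGI = concentration required for complete inhibition of growth.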

Results on ten molecules are retold here after PubChem BioAssay (NCI).

Test systems include A549 NSCLC; SW-620 colon; RXF 393 renal; OVCAR-5 ovarian; M14 melanoma; EKVX NSCLC; U251 CNS; SF-295 CNS.
Assay in all cases: NCI anticancer screen, dose series, 48 h

As to `O=C(NCCN1CCOCC1)c1cc2c(Oc3ccc(NC(=O)C4(C(=O)Nc5ccc(F)cc5)CC4)cc3)ccnc2[nH]1`, the GI50 is 4.9 µM with A549 NSCLC; 15300 nM in the assay on SW-620 colon; 1840 nM in the assay on RXF 393 renal; 9.94 µM in the assay on OVCAR-5 ovarian; 4140 nM with M14 melanoma; 10.3 µM with EKVX NSCLC. Also, the GI50 was 7870 nM in the assay on U251 CNS and 470 nM in the assay with SF-295 CNS. Besides, the TGI in the assay on A549 NSCLC is 48.6 µM; in the assay with SW-620 colon it was more than 100 µM; in the assay with RXF 393 renal, 19.8 µM; in the assay on OVCAR-5 ovarian, more than 100 µM; in the assay with M14 melanoma, more than 52.8 µM; in the assay with EKVX NSCLC, more than 100 µM. Moreover, the TGI in the assay with U251 CNS amounted to 34.5 µM; with SF-295 CNS, 15.5 µM.
Take `COC(=O)C(=O)C(C(=O)C(=O)Nc1cc(C)ccc1C)c1nc2ccccc2[nH]c1=O` (configuration not stated): the TGI with A549 NSCLC, in the assay with SW-620 colon, in the assay on RXF 393 renal, in the assay with OVCAR-5 ovarian, in the assay with M14 melanoma and with EKVX NSCLC was more than 100 µM each time. Further, the TGI in the assay with U251 CNS and with SF-295 CNS was more than 100 µM in each case.
`C=C1C(=O)C23C(O)CC4C(C)(C)CCC(O)C4(C)C2CC(OC(C)=O)C1[C@H]3O` (some centres not stated): the TGI came to 13.7 µM in the assay with A549 NSCLC; 2.53 µM in the assay on SW-620 colon; 5.26 µM in the assay on RXF 393 renal; 21.5 µM in the assay on OVCAR-5 ovarian; 12.1 µM in the assay on M14 melanoma; 16.8 µM with EKVX NSCLC. Besides, the TGI was 22.8 µM in the assay with U251 CNS and 21.6 µM in the assay on SF-295 CNS.
Regarding `O=C(O)CN(CCN(CC(=O)O)CC(=O)O)CC(=O)O.[Cu+2].[Na+]`, the GI50 was more than 100 µM in the assay with A549 NSCLC; more than 100000 nM with SW-620 colon; more than 100000 nM in the assay on RXF 393 renal; more than 100 µM in the assay with OVCAR-5 ovarian; more than 100000 nM in the assay with M14 melanoma; more than 100 µM with EKVX NSCLC. Moreover, the GI50 was more than 100000 nM in the assay with U251 CNS and 22300 nM in the assay on SF-295 CNS. Further, the TGI with A549 NSCLC, in the assay on SW-620 colon, in the assay on RXF 393 renal, in the assay on OVCAR-5 ovarian, in the assay with M14 melanoma and in the assay with EKVX NSCLC was more than 100 µM each time. Besides, the TGI with U251 CNS was more than 100 µM; in the assay on SF-295 CNS, 63.3 µM.
For `COc1cc2c3c(c4cc(OC)c(OC)cc4c2cc1OC)CN1CCC[C@H]1C3`, the TGI with A549 NSCLC was 0.142 µM; in the assay with RXF 393 renal it was 0.0931 µM; in the assay with OVCAR-5 ovarian, 0.681 µM; in the assay with M14 melanoma, 2.15 µM and 1.21 µM; with EKVX NSCLC, 0.285 µM and 0.284 µM; with U251 CNS, 0.331 µM. Further, the GI50 is 73.4 nM and < 12.4 nM with SW-620 colon; 4.87 nM with RXF 393 renal; 50.2 nM and < 14.2 nM in the assay with M14 melanoma; 0.0216 µM and < 0.01 µM with EKVX NSCLC; 22.1 nM and < 10 nM in the assay on U251 CNS; 35.7 nM and 10 nM in the assay with SF-295 CNS.
For the molecule `CCOC(=O)c1c(CN2CCCCC2)nc2ccc(Cl)cc2c1-c1ccccc1`, the GI50 with A549 NSCLC is 29.6 µM; in the assay with SW-620 colon, 18500 nM; in the assay on RXF 393 renal, 21400 nM; with OVCAR-5 ovarian it was 17.6 µM; in the assay on M14 melanoma it was 24600 nM; in the assay with EKVX NSCLC, 25.2 µM. Besides, the GI50 in the assay with U251 CNS is 20300 nM; in the assay with SF-295 CNS it was 31500 nM. For the same molecule, the TGI in the assay on A549 NSCLC was more than 100 µM; with SW-620 colon, 39.2 µM; with RXF 393 renal, 50 µM; in the assay with OVCAR-5 ovarian, 36.6 µM; with M14 melanoma it was 72.7 µM; with EKVX NSCLC, 69.2 µM. Also, the TGI turned out to be 41.2 µM in the assay with U251 CNS and 88 µM with SF-295 CNS.
`COc1cc(OC)c(/C=C/S(=O)(=O)Cc2ccc(OC)c(N)n2)c(OC)c1`: the GI50 was less than 0.01 µM in the assay on A549 NSCLC; less than 10 nM in the assay on SW-620 colon; less than 10 nM in the assay with RXF 393 renal; less than 0.0256 µM in the assay on OVCAR-5 ovarian; less than 10 nM with M14 melanoma; 0.0278 µM in the assay on EKVX NSCLC. Also, the GI50 in the assay with U251 CNS and in the assay with SF-295 CNS was less than 10 nM in each case. The TGI in the assay on A549 NSCLC, in the assay on SW-620 colon, in the assay on RXF 393 renal, in the assay on OVCAR-5 ovarian, in the assay on M14 melanoma and with EKVX NSCLC was more than 100 µM throughout. Further, the TGI in the assay with U251 CNS and with SF-295 CNS was more than 100 µM in each case.
Turning to `COc1ccc(/C(=C(\c2ccccc2)[N+](=O)[O-])c2ccc(OCCN3CCCC3)cc2)cc1`, the GI50 in the assay with A549 NSCLC is 4.68 µM; with SW-620 colon, 1740 nM; in the assay with RXF 393 renal it was 1650 nM; in the assay on OVCAR-5 ovarian it was 8.75 µM; in the assay on M14 melanoma, 1820 nM; in the assay on EKVX NSCLC it was 7.29 µM. The GI50 in the assay with U251 CNS was 2840 nM; in the assay on SF-295 CNS it was 1930 nM. For the same molecule, the TGI stood at 17.3 µM with A549 NSCLC; 4.19 µM in the assay on SW-620 colon; 3.76 µM with RXF 393 renal; 22.9 µM with OVCAR-5 ovarian; 3.47 µM in the assay with M14 melanoma; 21.5 µM in the assay with EKVX NSCLC. Also, the TGI in the assay on U251 CNS turned out to be 12.6 µM; in the assay with SF-295 CNS, 5.39 µM.
Consider `COc1cc2c3c(c4ccc(O)cc4c2cc1OC)[C@@H](O)[C@@H]1CCCN1C3`, for which the TGI in the assay on A549 NSCLC turned out to be 0.0026 µM; in the assay on SW-620 colon, 1.25 µM; with RXF 393 renal it was 0.0029 µM; with OVCAR-5 ovarian, 0.0454 µM; with M14 melanoma, 0.00883 µM; with EKVX NSCLC it was 0.00625 µM. Also, the TGI in the assay on U251 CNS was found to be 0.00241 µM; with SF-295 CNS, 0.0655 µM.
As to `CC1CCc2c(C(=O)Nc3ncc(Cc4cccc([N+](=O)[O-])c4)s3)csc2C1` (configuration not stated), the GI50 in the assay on A549 NSCLC is 0.944 µM; in the assay with SW-620 colon, 414 nM; in the assay on RXF 393 renal, 938 nM; with OVCAR-5 ovarian it was 1.56 µM; in the assay on M14 melanoma it was 400 nM; in the assay with EKVX NSCLC, 1.11 µM. Besides, the GI50 was 523 nM in the assay on U251 CNS and 400 nM in the assay on SF-295 CNS. Also, the TGI with A549 NSCLC is more than 100 µM; in the assay with SW-620 colon, more than 100 µM; in the assay on RXF 393 renal, 4.02 µM; in the assay on OVCAR-5 ovarian it was more than 100 µM; with M14 melanoma, more than 100 µM; in the assay with EKVX NSCLC, more than 100 µM. In addition, the TGI in the assay with U251 CNS and in the assay on SF-295 CNS was more than 100 µM each time.
